The target of one series is T1, β2-adrenoreceptors (Cavia porcellus, UniProt Q8K4Z4).
T1 construct: from tissue; host or cells: isolated guinea-pig trachea (tracheal rings)
The experiment in a line: Guinea-pig tracheal strip preparation (relaxation of PGF2a-contracted trachea). In kind it is cell-based. As to conditions: equipotent concentration = EC50 test compound / EC50 isoprenaline; tracheal rings contracted with prostaglandin F2a (2.9x10^-6M), 37°. The protocol: The compounds according to the invention have a selective stimulant action at P2-adrenoreceptors, which furthermore is of a particularly advantageous profile. […] Compounds according to the invention have shown a particularly long duration of action in this test.
The stimulant action at β2-adrenoreceptors of compounds of the invention was determined using the following:
GUINEA-PIG TRACHEAL STRIP PREPARATION
Tracheal rings were mounted in a superfusion apparatus, and continuously superfused with oxygenated physiological (Kreb's) solution containing indomethacin (2.4x10 ^6M) and atropine (4x10^-7M) at 37° at a rate of 2ml/min. Changes in tension of the preparation were measured using an isometric strain gauge. Preparations were contracted for the duration of the test by the inclusion of prostaglandin F2a (2.9x10^-6M) in the superfusion fluid. Two bolus dose-effect curves to the standard, isoprenaline, (1x10^-12-1x10^-9 moles) were obtained at the start of each test in a cumulative fashion, allowing the relaxation obtained with each to reach its own maximum before the next increment was made. On completion of this dose-effect curve, sufficient time was allowed for the tissue to recover (15-30min). After this time, sequential concentration-effect curves were constructed for first isoprenaline and then the test compound. These were constructed as follows: a low concentration (isoprenaline 3x10-^10M; test compound 1x10^-10M) was infused until any response obtained had reached its maximum, then the infusion was stopped and the tissue allowed to recover for a maximum of 30min. After this period the procedure was repeated using progressively increasing concentrations of agonist, and in this way, whole concentration-effect curves obtained. Potency was determined by comparison of the concentration-effect curve thus constructed with that previously obtained for isoprenaline and expressed as equipotent concentration (isoprenaline = 1) i.e. EC50 test compound was calculated.
Duration of action was also measured for each response, and is the time taken from stopping the infusion to 50% recovery. Graphs were drawn for duration times against response magnitude, and from these, duration times for 50% maximum responses were determined.

For the next series, the system named is guinea pigs. The experiment in a line: Oral administration to guinea pigs, adverse effects. In kind it is in vivo. Conditions: administered orally to guinea pigs at a dose of 5mg/kg. The text has this:
In general, the compounds according to the invention are non-toxic at therapeutically useful doses.

Structures can show the parent of a compound that is named as a salt.

T1 sequence (Q8K4Z4 whole entry): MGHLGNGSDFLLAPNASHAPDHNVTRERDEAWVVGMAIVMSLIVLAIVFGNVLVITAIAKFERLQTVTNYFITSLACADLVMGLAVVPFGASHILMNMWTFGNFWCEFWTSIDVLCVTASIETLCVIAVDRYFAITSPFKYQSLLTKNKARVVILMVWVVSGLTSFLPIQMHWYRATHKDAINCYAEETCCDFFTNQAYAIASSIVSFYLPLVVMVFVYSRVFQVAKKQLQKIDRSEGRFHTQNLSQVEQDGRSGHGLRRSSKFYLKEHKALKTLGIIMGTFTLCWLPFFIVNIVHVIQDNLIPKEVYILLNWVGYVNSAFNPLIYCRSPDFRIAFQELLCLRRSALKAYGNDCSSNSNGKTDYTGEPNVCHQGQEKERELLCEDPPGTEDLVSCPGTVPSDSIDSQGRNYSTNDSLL

Turning to `CC(CCCCCOCCc1ccccc1)NCC(O)c1ccc(O)c(CCO)c1` (stereo not shown) [Example 5, 2-Hydroxy-5-[1-hydroxy-2-[[1-metlayl-6-(2-phenylethoxy)hexyl]amino]ethyl]benzeneethanol hydrochloride (4:3)], the “Potency (Isoprenaline = 1)” value at β2-adrenoreceptors is listed as 0.17.

Consider `CC(CCCCCOCCc1ccccc1)NCC(O)c1ccc(O)c2[nH]c(=O)ccc12` (stereo not shown) [Example 6, 8-Hydroxy-5-[1-hydroxy-2-[[1-methyl-6-(2-phenylethoxy)hexyl]amino]ethyl]-2(1H)-quinolinone], for which the “Potency (Isoprenaline = 1)” value at β2-adrenoreceptors is reported as 0.16. For the same molecule, the adverse effects entry in the series on guinea pigs was “no adverse effects”.

Regarding `CC(CCCCCOCCc1ccccc1)NC[C@H](O)c1ccc(O)c(O)c1` (stereo partly drawn) [Example 8, (1R)-4-[1-Hydroxy-2-[1-methyl-6-(2-phenylethoxy)hexyl]amino]ethyl-1,2-benzenediol.], the “Potency (Isoprenaline = 1)” value on β2-adrenoreceptors worked out at 0.4. Further, the adverse effects result in the series with guinea pigs was “no adverse effects”.

For `Oc1cc(O)cc(C(O)CNCCCCCCOCCCCc2ccccc2)c1` (stereo not shown) [Example 10, 5-[1-Hydroxy-2-[[6-(4-phenylbutoxy)hexyl]amino]ethyl]-1,3-benzenediol], the adverse effects entry in the series on guinea pigs is “no adverse effects”.

In the case of `CC(CCCCCOCCc1ccc(F)cc1)NCC(O)c1cc(O)cc(O)c1` (stereo not shown) [Example 14, 5-[2-[[6-[2-(4-Fluorophenyl)ethoxy]-1-methylhexyl]amino]-1-hydroxyethyl]-1,3-benzenediol, benzoate (salt)], on β2-adrenoreceptors, the “Potency (Isoprenaline = 1)” value came out at 0.13.

On to `Oc1ccc(C(O)CNCCCCCCOCCCCc2ccccc2)cc1O` (stereo not shown) [Example 7, 4-[1-Hydroxy-2-[[6-(4-phenylbutoxy)hexyl]amino]ethyl]-1,2-benzenediol], for which, in the series on guinea pigs, the adverse effects entry was “no adverse effects”.

Turning to `COc1ccc(CCOCCCCCCNCC(O)c2ccc(O)c(O)c2)cc1` (stereo not drawn) [Example 17, 4-[l-Hydroxy-2-[[6-[2-(4-methoxyphenyl)ethoxy]hexyl]amino]ethyl]-1,2-benzenediol], the “Potency (Isoprenaline = 1)” value at β2-adrenoreceptors amounted to 0.6.

For the molecule `CC(CCCCCOCCc1ccccc1)NCC(O)c1cc(O)cc(O)c1` (stereo not shown) [Example 12, 5-[1-Hydroxy-2-[[1-methyl-6-(2-phenylethoxy)hexyl]amino]ethyl]-1,3-benzenediol benzoate (salt)], at β2-adrenoreceptors, the “Potency (Isoprenaline = 1)” value came out at 0.15.
